# Data reported in publication PMC9662648 (Journal of the American Chemical Society, 2022).
# Where “and” joins values, the source holds several entries; their conditions need not be identical. Identical values can stand only once. Like-named read-outs stand apart in the source and are kept apart here. Square brackets hold non-standard residues; d marks the D form. Peptide text beside a SMILES is read from it. * marks the point of attachment. Cit = NC(=O)NCCC[C@H](N)C(=O)O; CH2Cl = ClC*
# Key:
# M^Pro = M^Pro (Severe acute respiratory syndrome coronavirus 2, UniProt P0DTD1); assay type: biochemical; conditions: for Ki: read-out: M^Pro Ki(app), apparent; for fold less potent M^Pro inhibitor than alkyne parent: probes lacking the alkyne versus their parents; for M^Pro kinact/KI: second-order rate constant for enzyme inactivation
# Cathepsin L = Cathepsin L (Homo sapiens, UniProt P07711); test: Cathepsin L inhibition; assay type: biochemical; conditions: for IC50: read-out: Cathepsin L IC50
# Cathepsin B = Cathepsin B (Homo sapiens, UniProt P07858); test: Cathepsin B inhibition; assay type: biochemical; conditions: read-out: Cathepsin B IC50
# SARS-CoV2 [1] = assay type: cell-based; conditions: for EC50: read-out: EC50 for the inhibition of SARS-CoV-2 infection
# PL^Pro = PL^Pro (Severe acute respiratory syndrome coronavirus 2, UniProt P0DTD1); conditions: read-out: PL^Pro IC50
# SARS-CoV2 [2] = assay type: cell-based; conditions: Huh7.5 cells, 2 μM, 24 h, MOI 0.05
# Cytotoxicity = assay type: cell-based
# OC-43 = test: Inhibition of OC-43 in A549-hACE2 cells; assay type: cell-based; conditions: to a lesser extent than SARS-CoV2
# SARS-CoV2 pseudovirus = assay type: cell-based
# SARS-CoV-2 = assay type: cell-based; conditions: relative to the DMSO control
# SARS-CoV2 [3] = assay type: in vivo, K18-hACE2 transgenic mice; conditions: for SARS-CoV2-induced weight loss and lethality: intranasal, 10 mg/kg once daily for 3 days starting 2 h prior to infection; for lung histopathology: intraperitoneal treatment for 5 days; for SARS-CoV-2-induced weight loss and lethality: intraperitoneal, 25 mg/kg twice daily for 5 days, post-infection; for viral RNA loads and titers in lung tissue: versus vehicle control, 72 h treatment
# [4] = Weight loss in mock infected mice; conditions: mouse, in vivo
# [5] = Pharmacokinetics in BALB-6c mice; conditions: for adverse events or signs of toxicity: at the tested doses
# CatL = CatL (Homo sapiens, UniProt P07711); conditions: SM144 5 μM, 24 h, live A549-hACE2 cells
# Sequence of CatL (P07711 114-333): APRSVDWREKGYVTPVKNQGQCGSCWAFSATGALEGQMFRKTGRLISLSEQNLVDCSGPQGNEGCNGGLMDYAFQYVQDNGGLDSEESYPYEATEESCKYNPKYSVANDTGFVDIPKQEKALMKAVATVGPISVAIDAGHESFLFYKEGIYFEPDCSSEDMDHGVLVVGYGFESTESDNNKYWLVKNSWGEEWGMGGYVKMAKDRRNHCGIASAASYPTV
# Sequence of Cathepsin L (P07711 114-333): as above
compound,measurement,setting,value
C#CCOCCC(=O)NC(Cc1ccccc1)C(=O)NC(Cc1ccccc1)C(=O)NC(C=CC(=O)OCC)CC1CCNC1=O (stereo not drawn) [SM145],Ki,M^Pro,5.3 ± 0.4 µM
same,Cathepsin L kinact/KI,Cathepsin L,(2.5 ± 0.01)×10^4 M^−1min^−1
same,IC50,Cathepsin L,0.2 ± 0.004 µM
same,IC50,Cathepsin B,> 50 µM
same,antiviral activity compared with SM141 and SM142,SARS-CoV2 [1],significantly lower antiviral activity
same,IC50,PL^Pro,> 50 µM
N=C(N)NCCC[C@H](NC(=O)[C@H](Cc1ccccc1)NC(=O)[C@H](N)Cc1ccccc1)C(=O)CCl [D-FFR-CMK] (H-[dF]-Phe-Arg-CH2Cl),fold less potent M^Pro inhibitor than alkyne parent,M^Pro,4–5 fold
same,IC50,PL^Pro,5 ± 0.3 µM
NC(=O)NCCC[C@H](NC(=O)[C@H](Cc1ccccc1)NC(=O)[C@H](N)Cc1ccccc1)C(=O)CCl [D-FFCit-CMK] (H-[dF]-Phe-[Cit]-CH2Cl),fold less potent M^Pro inhibitor than alkyne parent,M^Pro,4–5 fold
same,IC50,PL^Pro,> 50 µM
CCOC(=O)C=CC(CC1CCNC1=O)NC(=O)C(Cc1ccccc1)NC(=O)C(N)Cc1ccccc1 (stereo not drawn) [SM141],Ki,M^Pro,9 ± 1 µM
same,M^Pro kinact/KI,M^Pro,(2.0 ± 0.2)×10^4 M^−1min^−1
same,Cathepsin L kinact/KI,Cathepsin L,(1.9 ± 0.5)×10^5 M^−1min^−1
same,fold more potent for CatL inhibition than M^Pro,Cathepsin L; from IC50 and kinact/KI values,10 fold
same,IC50,Cathepsin L,0.06 ± 0.001 µM
same,IC50,Cathepsin B,> 50 µM
same,fold by which the antiviral EC50 is lower than potency for M^Pro inhibition,SARS-CoV2 [1],more than 100 fold
same,antiviral activity,"SARS-CoV2 [1]; A549-hACE2 cells, 2 μM, 24 h, MOI 0.05",almost completely blocks viral infection
same,EC50,SARS-CoV2 [1]; A549-hACE2 cells,0.0082 µM
same,EC90,"SARS-CoV2 [1]; read-out: EC90 for the inhibition of SARS-CoV-2 infection, A549-hACE2 cells",0.0221 µM
same,antiviral activity,SARS-CoV2 [2],almost completely blocks viral infection
same,concentration up to which no notable cytotoxicity is caused,Cytotoxicity,50000 nM
same,inhibition of OC-43,OC-43,inhibits OC-43
same,additional inhibition of pseudovirus entry in CatL knockdown cells,SARS-CoV2 pseudovirus,did not show any significant additional inhibitory activity
same,inhibition of live virus infection in CatL knockdown cells,SARS-CoV-2,do inhibit live virus infection
same,SARS-CoV2-induced weight loss and lethality,SARS-CoV2 [3],protects mice from SARS-CoV2-induced weight loss and lethality
same,lung histopathology,SARS-CoV2 [3],significant reduction in lung inflammation and improved overall lung pathology
same,SARS-CoV-2-induced weight loss and lethality,SARS-CoV2 [3],protects K18-ACE2 mice from SARS-CoV-2-induced weight loss and lethality
same,viral RNA loads and titers in lung tissue,SARS-CoV2 [3],remarkably lower
same,weight loss in mock infected mice,[4],no significant weight loss
same,IC50,PL^Pro,> 50 µM
same,% Bioavailability,[5]; IP,35.2%
same,AUCINF_obs,[5]; IP,49620 ng·min/mL
same,AUClast,[5]; IP,1.6 µM·h
same,Cmax,[5]; IP,2700 nM
same,T1/2,[5]; IP,48 min
same,Tmax,[5]; IP,8.4 min
same,AUCINF_obs,[5]; IV,42350 ng·min/mL
same,AUClast,[5]; IV,1.3 µM·h
same,CI_Obs,[5]; IV,71.5 mL/min/kg
same,Cmax,[5]; IV,3900 nM
same,MRTINF_obs,[5]; IV,24 min
same,T1/2,[5]; IV,48 min
same,Tmax,[5]; IV,4.8 min
same,VSS_obs,[5]; IV,1.6 L/kg
same,% Bioavailability,[5]; PO,5%
same,AUCINF_obs,[5]; PO,7325 ng·min/mL
same,AUClast,[5]; PO,0.14 µM·h
same,Cmax,[5]; PO,200 nM
same,Tmax,[5]; PO,48 min
same,adverse events or signs of toxicity,[5],no adverse events or signs of toxicity were observed
CCOC(=O)C=CC(CC1CCNC1=O)NC(=O)C(Cc1ccccc1)NC(=O)C(Cc1ccc(F)cc1)NC(=O)OC(C)(C)C (stereo not drawn) [SM142],Ki,M^Pro,10 ± 1 µM
same,M^Pro kinact/KI,M^Pro,(1.1 ± 0.3)×10^4 M^−1min^−1
same,Cathepsin L kinact/KI,Cathepsin L,(1.1 ± 0.01)×10^5 M^−1min^−1
same,IC50,Cathepsin L,0.145 ± 0.014 µM
same,IC50,Cathepsin B,40 ± 9 µM
same,fold by which the antiviral EC50 is lower than potency for M^Pro inhibition,SARS-CoV2 [1],more than 100 fold
same,EC50,SARS-CoV2 [1]; A549-hACE2 cells,0.0147 µM
same,inhibition of OC-43,OC-43,inhibits OC-43
same,additional inhibition of pseudovirus entry in CatL knockdown cells,SARS-CoV2 pseudovirus,did not show any significant additional inhibitory activity
same,inhibition of live virus infection in CatL knockdown cells,SARS-CoV-2,do inhibit live virus infection
same,SARS-CoV2-induced weight loss and lethality,SARS-CoV2 [3],protects mice from SARS-CoV2-induced weight loss and lethality
same,lung histopathology,SARS-CoV2 [3],significant reduction in lung inflammation and improved overall lung pathology
same,SARS-CoV-2-induced weight loss and lethality,SARS-CoV2 [3],protects K18-ACE2 mice from SARS-CoV-2-induced weight loss and lethality
same,viral RNA loads and titers in lung tissue,SARS-CoV2 [3],remarkably lower
same,weight loss in mock infected mice,[4],no significant weight loss
same,IC50,PL^Pro,> 50 µM
same,AUCINF_obs,[5]; IV,18490 ng·min/mL
same,AUClast,[5]; IV,0.4 µM·h
same,CI_Obs,[5]; IV,169 mL/min/kg
same,Cmax,[5]; IV,400 nM
same,MRTINF_obs,[5]; IV,114 min
same,T1/2,[5]; IV,126 min
same,Tmax,[5]; IV,4.8 min
same,VSS_obs,[5]; IV,13.2 L/kg
same,% Bioavailability,[5]; PO,38% and 37.5%
same,AUCINF_obs,[5]; PO,20843 ng·min/mL
same,AUClast,[5]; PO,0.5 µM·h
same,Cmax,[5]; PO,600 nM
same,T1/2,[5]; PO,126 min
same,Tmax,[5]; PO,4.8 min
same,adverse events or signs of toxicity,[5],no adverse events or signs of toxicity were observed
same,volume of distribution,[5]; calculated,13 L/kg
CCOC(=O)C=CC(CC1CCNC1=O)NC(=O)C(Cc1ccc(F)cc1)NC(=O)C(N)Cc1ccccc1 (stereo not drawn) [SM137],Ki,M^Pro,50 ± 6 µM
same,M^Pro kinact/KI,M^Pro,(1.8 ± 0.2)×10^3 M^−1min^−1
CCOC(=O)C=CC(CC1CCNC1=O)NC(=O)C(Cc1ccc(F)cc1)NC(=O)C(Cc1ccccc1)NC(=O)OC(C)(C)C (stereo not drawn) [SM136],Ki,M^Pro,73 ± 4 µM
same,M^Pro kinact/KI,M^Pro,(7.7 ± 0.3)×10^2 M^−1min^−1
CCOC(=O)C=CC(CC1CCNC1=O)NC(=O)C(Cc1ccccc1)NC(=O)C(Cc1ccccc1)NC(=O)OC(C)(C)C (stereo not drawn) [SM140],Ki,M^Pro,16 ± 2 µM
same,M^Pro kinact/KI,M^Pro,(9.0 ± 0.2)×10^3 M^−1min^−1
same,IC50,Cathepsin B,> 50 µM
same,IC50,PL^Pro,> 50 µM
C#CCOCCC(=O)NC(Cc1ccc(F)cc1)C(=O)NC(Cc1ccccc1)C(=O)NC(C=CC(=O)OCC)CC1CCNC1=O (stereo not drawn) [SM144],Ki,M^Pro,4.5 ± 0.5 µM
same,M^Pro kinact/KI,M^Pro,(3.4 ± 0.1)×10^4 M^−1min^−1
same,Cathepsin L kinact/KI,Cathepsin L,(6 ± 0.2)×10^4 M^−1min^−1
same,IC50,Cathepsin L,0.22 ± 0.026 µM
same,IC50,Cathepsin B,> 50 µM
same,antiviral activity compared with SM141 and SM142,SARS-CoV2 [1],significantly lower antiviral activity
same,IC50,PL^Pro,> 50 µM
same,enrichment of CatL,CatL,> 128 fold
